Results from the kinase profiling compilation of Christmann-Franck et al. (2016).

Tests used:
Assay in all cases: radiometric filter-binding kinase assay
BRSK2 (human) = BRSK2 (human) (UniProt Q8IWQ3)
HIPK2 (human) = HIPK2 (human) (UniProt Q9H2X6)
MAPK13 (human) = MAPK13 (human) (UniProt O15264)
CaMK1 (human) = CaMK1 (human) (UniProt Q14012)
MARK3 (human) = MARK3 (human) (UniProt P27448)
AURKB (human) = AURKB (human) (UniProt Q96GD4)
DYRK1A (human) = DYRK1A (human) (UniProt Q13627)
MAPK10 (human) = MAPK10 (human) (UniProt P53779)
MKNK1 (human) = MKNK1 (human) (UniProt Q9BUB5)
MAPK11 (human) = MAPK11 (human) (UniProt Q15759)
PIM3 (human) = PIM3 (human) (UniProt Q86V86)
LCK (mouse) = details: accession and sequence are those of the human protein
ROCK2 (rat) = details: accession and sequence are those of the human protein
PHKG1 (human) = PHKG1 (human) (UniProt Q16816)
MAPK8 (human) = MAPK8 (human) (UniProt P45983)
CSNK2A1 (human) = CSNK2A1 (human) (UniProt P68400)
MAPKAPK5 (human) = MAPKAPK5 (human) (UniProt Q8IW41)
DYRK3 (human) = DYRK3 (human) (UniProt O43781)
[1] = system: SGK1 (human), O00141 [S422D]
CHEK1 (human) = CHEK1 (human) (UniProt O14757)
CAMKK2 (human) = CAMKK2 (human) (UniProt Q96RR4)
SRPK1 (human) = SRPK1 (human) (UniProt Q96SB4)
Sequence of SRPK1 (human) (Q96SB4 whole entry, looked up): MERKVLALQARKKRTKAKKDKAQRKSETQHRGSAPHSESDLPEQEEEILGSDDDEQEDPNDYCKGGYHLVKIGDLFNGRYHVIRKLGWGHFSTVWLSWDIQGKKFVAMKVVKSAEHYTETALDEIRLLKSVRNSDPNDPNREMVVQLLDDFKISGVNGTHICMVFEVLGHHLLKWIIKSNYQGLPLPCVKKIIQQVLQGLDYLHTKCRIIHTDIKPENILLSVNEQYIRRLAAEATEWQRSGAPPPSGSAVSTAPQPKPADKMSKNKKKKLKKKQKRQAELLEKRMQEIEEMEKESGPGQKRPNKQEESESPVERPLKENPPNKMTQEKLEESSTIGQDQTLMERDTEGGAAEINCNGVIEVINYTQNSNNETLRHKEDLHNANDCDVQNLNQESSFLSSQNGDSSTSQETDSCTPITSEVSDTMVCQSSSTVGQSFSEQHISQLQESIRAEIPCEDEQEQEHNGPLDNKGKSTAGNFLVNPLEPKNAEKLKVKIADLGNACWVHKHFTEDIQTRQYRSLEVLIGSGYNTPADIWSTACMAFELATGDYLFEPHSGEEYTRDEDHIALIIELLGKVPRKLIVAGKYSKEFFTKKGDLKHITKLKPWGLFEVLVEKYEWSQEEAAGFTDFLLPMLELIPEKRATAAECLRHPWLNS

STK3 (human) = STK3 (human) (UniProt Q13188)
Sequence of STK3 (human) (Q13188 whole entry, looked up): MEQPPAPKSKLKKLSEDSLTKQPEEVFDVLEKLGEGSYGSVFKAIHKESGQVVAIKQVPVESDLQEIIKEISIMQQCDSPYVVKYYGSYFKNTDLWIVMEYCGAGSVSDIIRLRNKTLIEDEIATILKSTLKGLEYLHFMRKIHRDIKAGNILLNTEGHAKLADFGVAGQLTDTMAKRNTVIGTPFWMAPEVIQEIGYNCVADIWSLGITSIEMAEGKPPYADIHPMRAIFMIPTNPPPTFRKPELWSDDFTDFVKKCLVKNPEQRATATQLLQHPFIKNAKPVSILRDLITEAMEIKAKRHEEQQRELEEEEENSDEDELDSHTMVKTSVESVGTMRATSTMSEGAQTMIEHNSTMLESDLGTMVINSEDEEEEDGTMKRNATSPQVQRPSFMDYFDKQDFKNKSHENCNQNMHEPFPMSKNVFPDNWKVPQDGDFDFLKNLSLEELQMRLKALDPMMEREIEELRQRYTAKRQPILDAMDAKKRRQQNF

GCK (human) = GCK (human) (UniProt Q12851)
FGFR1 (human) = FGFR1 (human) (UniProt P11362)
Sequence of FGFR1 (human) (P11362 whole entry, looked up): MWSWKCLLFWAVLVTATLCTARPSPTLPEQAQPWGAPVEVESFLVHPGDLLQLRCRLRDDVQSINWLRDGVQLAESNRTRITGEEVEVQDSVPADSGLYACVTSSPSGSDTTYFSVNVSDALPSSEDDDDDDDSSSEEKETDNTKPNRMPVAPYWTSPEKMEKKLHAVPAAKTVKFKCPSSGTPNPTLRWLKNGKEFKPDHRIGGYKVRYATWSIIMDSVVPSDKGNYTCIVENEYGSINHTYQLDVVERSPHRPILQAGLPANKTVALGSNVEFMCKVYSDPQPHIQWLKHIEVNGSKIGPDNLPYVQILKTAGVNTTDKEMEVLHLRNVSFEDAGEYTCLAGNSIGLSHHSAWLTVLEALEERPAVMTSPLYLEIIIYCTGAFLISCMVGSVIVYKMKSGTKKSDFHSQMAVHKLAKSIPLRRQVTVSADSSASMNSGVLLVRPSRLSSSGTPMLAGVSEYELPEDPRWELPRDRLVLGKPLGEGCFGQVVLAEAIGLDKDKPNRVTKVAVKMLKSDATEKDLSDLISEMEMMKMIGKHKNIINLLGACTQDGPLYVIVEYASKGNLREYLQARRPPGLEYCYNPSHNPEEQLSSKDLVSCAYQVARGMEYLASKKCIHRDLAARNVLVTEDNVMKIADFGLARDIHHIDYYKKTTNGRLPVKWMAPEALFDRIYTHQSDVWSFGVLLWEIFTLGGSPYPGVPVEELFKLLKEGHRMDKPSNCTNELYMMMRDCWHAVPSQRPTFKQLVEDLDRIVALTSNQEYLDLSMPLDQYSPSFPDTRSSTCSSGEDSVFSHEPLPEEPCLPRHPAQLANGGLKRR

HIPK1 (human) = HIPK1 (human) (UniProt Q86Z02)
Sequence of HIPK1 (human) (Q86Z02 whole entry, looked up): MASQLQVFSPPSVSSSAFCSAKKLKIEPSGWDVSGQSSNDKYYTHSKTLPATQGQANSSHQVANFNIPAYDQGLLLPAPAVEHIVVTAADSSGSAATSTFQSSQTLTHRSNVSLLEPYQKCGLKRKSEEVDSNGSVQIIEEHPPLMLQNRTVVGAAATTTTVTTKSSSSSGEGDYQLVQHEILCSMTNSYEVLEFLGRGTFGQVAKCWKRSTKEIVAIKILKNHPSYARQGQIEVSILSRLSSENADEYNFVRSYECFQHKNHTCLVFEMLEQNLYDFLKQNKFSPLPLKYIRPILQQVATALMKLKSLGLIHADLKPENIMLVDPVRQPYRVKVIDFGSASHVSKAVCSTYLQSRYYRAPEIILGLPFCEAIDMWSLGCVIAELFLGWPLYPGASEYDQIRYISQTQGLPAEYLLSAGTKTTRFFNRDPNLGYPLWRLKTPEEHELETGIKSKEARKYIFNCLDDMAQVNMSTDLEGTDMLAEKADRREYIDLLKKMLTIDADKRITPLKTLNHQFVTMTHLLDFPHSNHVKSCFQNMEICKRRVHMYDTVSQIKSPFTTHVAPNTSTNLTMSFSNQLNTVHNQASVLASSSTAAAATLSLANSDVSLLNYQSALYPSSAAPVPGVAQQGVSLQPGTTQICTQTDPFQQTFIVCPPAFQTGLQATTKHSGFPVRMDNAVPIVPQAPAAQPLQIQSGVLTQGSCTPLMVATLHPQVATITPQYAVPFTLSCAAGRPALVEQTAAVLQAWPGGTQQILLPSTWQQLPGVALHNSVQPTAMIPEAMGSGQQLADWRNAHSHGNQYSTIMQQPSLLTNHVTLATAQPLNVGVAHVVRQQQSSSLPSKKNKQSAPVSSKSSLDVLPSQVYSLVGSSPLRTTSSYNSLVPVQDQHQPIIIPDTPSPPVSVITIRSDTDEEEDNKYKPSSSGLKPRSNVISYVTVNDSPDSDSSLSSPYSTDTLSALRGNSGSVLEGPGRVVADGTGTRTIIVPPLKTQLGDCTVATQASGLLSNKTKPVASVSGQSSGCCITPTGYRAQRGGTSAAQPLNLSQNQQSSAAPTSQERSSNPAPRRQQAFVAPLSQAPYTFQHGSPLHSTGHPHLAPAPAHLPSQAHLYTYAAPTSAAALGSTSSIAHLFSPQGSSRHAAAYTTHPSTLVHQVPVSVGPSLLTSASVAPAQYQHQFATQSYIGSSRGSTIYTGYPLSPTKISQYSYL

TBK1 (human) = TBK1 (human) (UniProt Q9UHD2)
Sequence of TBK1 (human) (Q9UHD2 whole entry, looked up): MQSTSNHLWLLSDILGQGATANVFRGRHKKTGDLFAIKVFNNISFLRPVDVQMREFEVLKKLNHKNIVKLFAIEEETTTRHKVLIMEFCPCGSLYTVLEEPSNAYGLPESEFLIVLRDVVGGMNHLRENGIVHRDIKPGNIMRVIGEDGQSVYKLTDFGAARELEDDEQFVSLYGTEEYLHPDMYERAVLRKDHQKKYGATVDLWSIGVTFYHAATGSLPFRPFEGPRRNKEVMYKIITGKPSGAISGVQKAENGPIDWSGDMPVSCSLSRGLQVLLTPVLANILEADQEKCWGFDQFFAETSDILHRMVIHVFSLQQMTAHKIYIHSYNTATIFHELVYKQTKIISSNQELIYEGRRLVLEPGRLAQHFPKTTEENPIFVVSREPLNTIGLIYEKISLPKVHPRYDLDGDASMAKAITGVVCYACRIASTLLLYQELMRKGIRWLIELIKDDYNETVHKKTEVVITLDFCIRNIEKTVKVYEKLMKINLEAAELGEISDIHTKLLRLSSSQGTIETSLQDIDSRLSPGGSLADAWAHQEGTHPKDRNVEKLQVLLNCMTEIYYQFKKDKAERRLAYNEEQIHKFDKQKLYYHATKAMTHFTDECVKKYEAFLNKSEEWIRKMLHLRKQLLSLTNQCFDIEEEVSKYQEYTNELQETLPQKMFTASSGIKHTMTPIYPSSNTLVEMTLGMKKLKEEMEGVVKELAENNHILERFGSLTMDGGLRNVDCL

MINK1 (human) = MINK1 (human) (UniProt Q8N4C8)
[2] = system: PAK2 (human), Q13177 [T402E]
IGF1R (human) = IGF1R (human) (UniProt P08069)
YES1 (human) = YES1 (human) (UniProt P07947)

Sequence of AURKB (human) (Q96GD4 whole entry, looked up): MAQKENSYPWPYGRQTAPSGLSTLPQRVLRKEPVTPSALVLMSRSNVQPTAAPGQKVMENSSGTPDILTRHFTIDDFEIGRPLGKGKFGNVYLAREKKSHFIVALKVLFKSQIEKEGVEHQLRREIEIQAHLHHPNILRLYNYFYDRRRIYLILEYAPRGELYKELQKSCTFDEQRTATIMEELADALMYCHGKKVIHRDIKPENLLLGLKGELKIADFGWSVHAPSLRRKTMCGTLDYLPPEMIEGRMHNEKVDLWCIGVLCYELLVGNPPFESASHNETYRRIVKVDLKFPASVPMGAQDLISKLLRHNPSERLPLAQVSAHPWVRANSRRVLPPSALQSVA
Sequence of CaMK1 (human) (Q14012 whole entry, looked up): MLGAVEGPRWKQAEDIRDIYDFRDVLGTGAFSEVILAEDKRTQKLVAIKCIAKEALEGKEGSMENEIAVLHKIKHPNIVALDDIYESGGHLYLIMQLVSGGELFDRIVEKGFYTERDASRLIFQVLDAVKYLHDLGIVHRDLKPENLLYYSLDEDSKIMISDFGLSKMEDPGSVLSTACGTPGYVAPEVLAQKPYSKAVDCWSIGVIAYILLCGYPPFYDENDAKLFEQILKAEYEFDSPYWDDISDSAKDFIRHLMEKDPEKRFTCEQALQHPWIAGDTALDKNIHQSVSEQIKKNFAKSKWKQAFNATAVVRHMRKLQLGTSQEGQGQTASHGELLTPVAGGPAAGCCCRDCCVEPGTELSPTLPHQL

## Cn1nc(Nc2ccc(F)cc2)c2c(N)ncnc21
BRSK2 (human); compound 1.0 µM
  residual activity: 99%
BRSK2 (human); compound 10.0 µM
  residual activity: 92%
HIPK2 (human); compound 1.0 µM
  residual activity: 113%
HIPK2 (human); compound 10.0 µM
  residual activity: 105%
MAPK13 (human); compound 1.0 µM
  residual activity: 104%
MAPK13 (human); compound 10.0 µM
  residual activity: 109%
CaMK1 (human); compound 1.0 µM
  residual activity: 103%
CaMK1 (human); compound 10.0 µM
  residual activity: 97%
MARK3 (human); compound 1.0 µM
  residual activity: 82%
MARK3 (human); compound 10.0 µM
  residual activity: 79%
AURKB (human); compound 1.0 µM
  residual activity: 98%
AURKB (human); compound 10.0 µM
  residual activity: 82%
DYRK1A (human); compound 1.0 µM
  residual activity: 105%
DYRK1A (human); compound 10.0 µM
  residual activity: 101%
MAPK10 (human); compound 1.0 µM
  residual activity: 104%
MAPK10 (human); compound 10.0 µM
  residual activity: 104%
MKNK1 (human); compound 1.0 µM
  residual activity: 95%
MKNK1 (human); compound 10.0 µM
  residual activity: 92%
MAPK11 (human); compound 1.0 µM
  residual activity: 132%
MAPK11 (human); compound 10.0 µM
  residual activity: 127%
PIM3 (human); compound 1.0 µM
  residual activity: 101%
PIM3 (human); compound 10.0 µM
  residual activity: 95%
LCK (mouse); compound 1.0 µM
  residual activity: 112%
LCK (mouse); compound 10.0 µM
  residual activity: 81%
ROCK2 (rat); compound 1.0 µM
  residual activity: 117%
ROCK2 (rat); compound 10.0 µM
  residual activity: 113%
PHKG1 (human); compound 1.0 µM
  residual activity: 113%
PHKG1 (human); compound 10.0 µM
  residual activity: 119%
MAPK8 (human); compound 1.0 µM
  residual activity: 112%
MAPK8 (human); compound 10.0 µM
  residual activity: 102%
CSNK2A1 (human); compound 1.0 µM
  residual activity: 91%
CSNK2A1 (human); compound 10.0 µM
  residual activity: 96%
MAPKAPK5 (human); compound 1.0 µM
  residual activity: 107%
MAPKAPK5 (human); compound 10.0 µM
  residual activity: 109%
DYRK3 (human); compound 1.0 µM
  residual activity: 119%
DYRK3 (human); compound 10.0 µM
  residual activity: 101%
[1]; compound 1.0 µM
  residual activity: 97%
[1]; compound 10.0 µM
  residual activity: 98%
CHEK1 (human); compound 1.0 µM
  residual activity: 118%
CHEK1 (human); compound 10.0 µM
  residual activity: 112%
CAMKK2 (human); compound 1.0 µM
  residual activity: 112%
CAMKK2 (human); compound 10.0 µM
  residual activity: 120%
SRPK1 (human); compound 1.0 µM
  residual activity: 137%
SRPK1 (human); compound 10.0 µM
  residual activity: 129%
STK3 (human); compound 1.0 µM
  residual activity: 102%
STK3 (human); compound 10.0 µM
  residual activity: 104%

## CN1C(=O)[C@@H](Cc2c[nH]c3ccccc23)NC1=S
GCK (human); compound 1.0 µM
  residual activity: 110%
GCK (human); compound 10.0 µM
  residual activity: 89%
BRSK2 (human); compound 1.0 µM
  residual activity: 91%
BRSK2 (human); compound 10.0 µM
  residual activity: 85%
HIPK2 (human); compound 1.0 µM
  residual activity: 81%
HIPK2 (human); compound 10.0 µM
  residual activity: 88%
FGFR1 (human); compound 1.0 µM
  residual activity: 93%
FGFR1 (human); compound 10.0 µM
  residual activity: 100%
MAPK13 (human); compound 1.0 µM
  residual activity: 96%
MAPK13 (human); compound 10.0 µM
  residual activity: 102%
HIPK1 (human); compound 1.0 µM
  residual activity: 91%
HIPK1 (human); compound 10.0 µM
  residual activity: 91%
CaMK1 (human); compound 1.0 µM
  residual activity: 94%
CaMK1 (human); compound 10.0 µM
  residual activity: 94%
MARK3 (human); compound 1.0 µM
  residual activity: 94%
MARK3 (human); compound 10.0 µM
  residual activity: 98%
AURKB (human); compound 1.0 µM
  residual activity: 104%
AURKB (human); compound 10.0 µM
  residual activity: 106%
TBK1 (human); compound 1.0 µM
  residual activity: 87%
TBK1 (human); compound 10.0 µM
  residual activity: 96%
DYRK1A (human); compound 1.0 µM
  residual activity: 81%
DYRK1A (human); compound 10.0 µM
  residual activity: 94%
MAPK10 (human); compound 1.0 µM
  residual activity: 99%
MAPK10 (human); compound 10.0 µM
  residual activity: 110%
MKNK1 (human); compound 1.0 µM
  residual activity: 86%
MKNK1 (human); compound 10.0 µM
  residual activity: 78%
MINK1 (human); compound 1.0 µM
  residual activity: 103%
MINK1 (human); compound 10.0 µM
  residual activity: 99%
MAPK11 (human); compound 1.0 µM
  residual activity: 91%
MAPK11 (human); compound 10.0 µM
  residual activity: 88%
PIM3 (human); compound 1.0 µM
  residual activity: 88%
PIM3 (human); compound 10.0 µM
  residual activity: 85%
LCK (mouse); compound 1.0 µM
  residual activity: 116%
LCK (mouse); compound 10.0 µM
  residual activity: 111%
ROCK2 (rat); compound 1.0 µM
  residual activity: 96%
ROCK2 (rat); compound 10.0 µM
  residual activity: 97%
PHKG1 (human); compound 1.0 µM
  residual activity: 103%
PHKG1 (human); compound 10.0 µM
  residual activity: 97%
MAPK8 (human); compound 1.0 µM
  residual activity: 85%
MAPK8 (human); compound 10.0 µM
  residual activity: 79%
[2]; compound 1.0 µM
  residual activity: 102%
[2]; compound 10.0 µM
  residual activity: 94%
CSNK2A1 (human); compound 1.0 µM
  residual activity: 95%
CSNK2A1 (human); compound 10.0 µM
  residual activity: 87%
MAPKAPK5 (human); compound 1.0 µM
  residual activity: 88%
MAPKAPK5 (human); compound 10.0 µM
  residual activity: 87%
DYRK3 (human); compound 1.0 µM
  residual activity: 90%
DYRK3 (human); compound 10.0 µM
  residual activity: 82%
[1]; compound 1.0 µM
  residual activity: 99%
[1]; compound 10.0 µM
  residual activity: 98%
CHEK1 (human); compound 1.0 µM
  residual activity: 109%
CHEK1 (human); compound 10.0 µM
  residual activity: 103%
IGF1R (human); compound 1.0 µM
  residual activity: 86%
IGF1R (human); compound 10.0 µM
  residual activity: 120%
YES1 (human); compound 1.0 µM
  residual activity: 107%
YES1 (human); compound 10.0 µM
  residual activity: 92%
CAMKK2 (human); compound 1.0 µM
  residual activity: 91%
CAMKK2 (human); compound 10.0 µM
  residual activity: 86%
SRPK1 (human); compound 1.0 µM
  residual activity: 93%
SRPK1 (human); compound 10.0 µM
  residual activity: 89%
STK3 (human); compound 1.0 µM
  residual activity: 94%
STK3 (human); compound 10.0 µM
  residual activity: 104%

## O=C(O)c1cc(N=Nc2ccc(S(=O)(=O)Nc3ccccn3)cc2)ccc1O
GCK (human); compound 1.0 µM
  residual activity: 101%
GCK (human); compound 10.0 µM
  residual activity: 96%
BRSK2 (human); compound 1.0 µM
  residual activity: 106%
BRSK2 (human); compound 10.0 µM
  residual activity: 87%
HIPK2 (human); compound 10.0 µM
  residual activity: 94%
FGFR1 (human); compound 1.0 µM
  residual activity: 110%
FGFR1 (human); compound 10.0 µM
  residual activity: 115%
MAPK13 (human); compound 1.0 µM
  residual activity: 100%
MAPK13 (human); compound 10.0 µM
  residual activity: 103%
HIPK1 (human); compound 1.0 µM
  residual activity: 111%
HIPK1 (human); compound 10.0 µM
  residual activity: 105%
CaMK1 (human); compound 1.0 µM
  residual activity: 97%
CaMK1 (human); compound 10.0 µM
  residual activity: 91%
MARK3 (human); compound 1.0 µM
  residual activity: 117%
MARK3 (human); compound 10.0 µM
  residual activity: 109%
AURKB (human); compound 1.0 µM
  residual activity: 104%
AURKB (human); compound 10.0 µM
  residual activity: 105%
TBK1 (human); compound 1.0 µM
  residual activity: 111%
TBK1 (human); compound 10.0 µM
  residual activity: 99%
DYRK1A (human); compound 1.0 µM
  residual activity: 94%
DYRK1A (human); compound 10.0 µM
  residual activity: 85%
MAPK10 (human); compound 1.0 µM
  residual activity: 105%
MAPK10 (human); compound 10.0 µM
  residual activity: 107%
MKNK1 (human); compound 1.0 µM
  residual activity: 97%
MKNK1 (human); compound 10.0 µM
  residual activity: 79%
MINK1 (human); compound 10.0 µM
  residual activity: 57%
MAPK11 (human); compound 1.0 µM
  residual activity: 113%
MAPK11 (human); compound 10.0 µM
  residual activity: 109%
PIM3 (human); compound 1.0 µM
  residual activity: 63%
PIM3 (human); compound 10.0 µM
  residual activity: 18%
LCK (mouse); compound 1.0 µM
  residual activity: 102%
LCK (mouse); compound 10.0 µM
  residual activity: 97%
ROCK2 (rat); compound 1.0 µM
  residual activity: 93%
ROCK2 (rat); compound 10.0 µM
  residual activity: 90%
PHKG1 (human); compound 1.0 µM
  residual activity: 104%
PHKG1 (human); compound 10.0 µM
  residual activity: 94%
MAPK8 (human); compound 1.0 µM
  residual activity: 96%
MAPK8 (human); compound 10.0 µM
  residual activity: 96%
[2]; compound 1.0 µM
  residual activity: 108%
[2]; compound 10.0 µM
  residual activity: 94%
CSNK2A1 (human); compound 1.0 µM
  residual activity: 83%
CSNK2A1 (human); compound 10.0 µM
  residual activity: 29%
MAPKAPK5 (human); compound 1.0 µM
  residual activity: 92%
MAPKAPK5 (human); compound 10.0 µM
  residual activity: 90%
DYRK3 (human); compound 1.0 µM
  residual activity: 89%
DYRK3 (human); compound 10.0 µM
  residual activity: 77%
[1]; compound 1.0 µM
  residual activity: 76%
[1]; compound 10.0 µM
  residual activity: 54%
CHEK1 (human); compound 1.0 µM
  residual activity: 104%
CHEK1 (human); compound 10.0 µM
  residual activity: 109%
IGF1R (human); compound 1.0 µM
  residual activity: 111%
IGF1R (human); compound 10.0 µM
  residual activity: 98%
YES1 (human); compound 1.0 µM
  residual activity: 113%
YES1 (human); compound 10.0 µM
  residual activity: 103%
CAMKK2 (human); compound 1.0 µM
  residual activity: 127%
CAMKK2 (human); compound 10.0 µM
  residual activity: 122%
SRPK1 (human); compound 1.0 µM
  residual activity: 106%
SRPK1 (human); compound 10.0 µM
  residual activity: 104%
STK3 (human); compound 1.0 µM
  residual activity: 94%
STK3 (human); compound 10.0 µM
  residual activity: 92%
